Measurements as given in ChEMBL document CHEMBL3046652, “Photodimerization of heteroaryl chalcones: comparative antimicrobial activities of chalcones and their photoproducts” (2012).
In brackets after ≈: the same amount, converted by molar mass.

Experiments:
Format in all cases: functional
[1] = test system: Salmonella typhi; test: Antimicrobial activity against Salmonella enterica subsp. enterica serovar Typhi at 10 to 60 ug/disk by disk diffusion method
[2] = test system: Candida albicans; test: Antimicrobial activity against Candida albicans at 10 to 60 ug/disk by disk diffusion method
[3] = test system: Proteus vulgaris; test: Antimicrobial activity against Proteus vulgaris at 10 to 60 ug/disk by disk diffusion method
[4] = test system: Serratia marcescens; test: Antimicrobial activity against Serratia marcescens at 10 to 60 ug/disk by disk diffusion method
[5] = test system: Fusarium verticillioides; test: Antimicrobial activity against Fusarium verticillioides at 10 to 60 ug/disk by disk diffusion method
[6] = test system: Klebsiella pneumoniae; test: Antimicrobial activity against Klebsiella pneumoniae at 10 to 60 ug/disk by disk diffusion method
[7] = test system: Aspergillus niger; test: Antimicrobial activity against Aspergillus niger at 10 to 60 ug/disk by disk diffusion method
[8] = test system: Aspergillus oryzae; test: Antimicrobial activity against Aspergillus oryzae at 10 to 60 ug/disk by disk diffusion method
[9] = test system: Micrococcus luteus; test: Antimicrobial activity against Micrococcus luteus at 10 to 60 ug/disc by disk diffusion method
[10] = test system: Priestia megaterium; test: Antimicrobial activity against Bacillus megaterium at 10 to 60 ug/disk by disk diffusion method
[11] = test system: Pseudomonas aeruginosa; test: Antimicrobial activity against Pseudomonas aeruginosa at 10 to 60 ug/disk by disk diffusion method
[12] = test system: Escherichia coli; test: Antimicrobial activity against Escherichia coli at 10 to 60 ug/disk by disk diffusion method
[13] = test system: Citrobacter freundii; test: Antimicrobial activity against Citrobacter freundii at 10 to 60 ug/disk by disk diffusion method
[14] = test system: Priestia megaterium; test: Antimicrobial activity against Bacillus megaterium by disk diffusion method
[15] = test system: Aspergillus oryzae; test: Antimicrobial activity against Aspergillus oryzae at 10 ug/disk by disk diffusion method; details: read-out: DIZ
[16] = test system: Escherichia coli; test: Antimicrobial activity against Escherichia coli at 10 ug/disk by disk diffusion method; details: read-out: DIZ
[17] = test system: Salmonella typhi; test: Antimicrobial activity against Salmonella enterica subsp. enterica serovar Typhi at 10 ug/disk by disk diffusion method; details: read-out: DIZ
[18] = test system: Escherichia coli; test: Antimicrobial activity against Escherichia coli by disk diffusion method
[19] = test system: Klebsiella pneumoniae; test: Antimicrobial activity against Klebsiella pneumoniae by disk diffusion method
[20] = test system: Serratia marcescens; test: Antimicrobial activity against Serratia marcescens at 20 ug/disk by disk diffusion method; details: read-out: DIZ
[21] = test system: Aspergillus niger; test: Antimicrobial activity against Aspergillus niger at 20 ug/disk by disk diffusion method; details: read-out: DIZ
[22] = test system: Micrococcus luteus; test: Antimicrobial activity against Micrococcus luteus by disk diffusion method
[23] = test system: Citrobacter freundii; test: Antimicrobial activity against Citrobacter freundii by disk diffusion method
[24] = test system: Proteus vulgaris; test: Antimicrobial activity against Proteus vulgaris at 20 ug/disk by disk diffusion method; details: read-out: DIZ
[25] = test system: Priestia megaterium; test: Antimicrobial activity against Bacillus megaterium at 10 ug/disk by disk diffusion method; details: read-out: DIZ
[26] = test system: Fusarium verticillioides; test: Antimicrobial activity against Fusarium verticillioides at 10 ug/disk by disk diffusion method; details: read-out: DIZ
[27] = test system: Pseudomonas aeruginosa; test: Antimicrobial activity against Pseudomonas aeruginosa at 10 ug/disk by disk diffusion method; details: read-out: DIZ
[28] = test system: Candida albicans; test: Antimicrobial activity against Candida albicans at 40 ug/disk by disk diffusion method; details: read-out: DIZ
[29] = test system: Serratia marcescens; test: Antimicrobial activity against Serratia marcescens by disk diffusion method
[30] = test system: Citrobacter freundii; test: Antimicrobial activity against Citrobacter freundii at 20 ug/disk by disk diffusion method; details: read-out: DIZ
[31] = test system: Pseudomonas aeruginosa; test: Antimicrobial activity against Pseudomonas aeruginosa by disk diffusion method
[32] = test system: Salmonella typhi; test: Antimicrobial activity against Salmonella enterica subsp. enterica serovar Typhi by disk diffusion method
[33] = test system: Proteus vulgaris; test: Antimicrobial activity against Proteus vulgaris by disk diffusion method
[34] = test system: Micrococcus luteus; test: Antimicrobial activity against Micrococcus luteus at 10 ug/disc by disk diffusion method; details: read-out: DIZ
[35] = test system: Candida albicans; test: Antimicrobial activity against Candida albicans at 20 ug/disk by disk diffusion method; details: read-out: DIZ
[36] = test system: Klebsiella pneumoniae; test: Antimicrobial activity against Klebsiella pneumoniae at 10 ug/disk by disk diffusion method; details: read-out: DIZ
[37] = test system: Proteus vulgaris; test: Antimicrobial activity against Proteus vulgaris at 10 ug/disk by disk diffusion method; details: read-out: DIZ
[38] = test system: Aspergillus niger; test: Antimicrobial activity against Aspergillus niger at 10 ug/disk by disk diffusion method; details: read-out: DIZ
[39] = test system: Citrobacter freundii; test: Antimicrobial activity against Citrobacter freundii at 10 ug/disk by disk diffusion method; details: read-out: DIZ
[40] = test system: Fusarium verticillioides; test: Antimicrobial activity against Fusarium verticillioides at 20 ug/disk by disk diffusion method; details: read-out: DIZ
[41] = test system: Serratia marcescens; test: Antimicrobial activity against Serratia marcescens at 10 ug/disk by disk diffusion method; details: read-out: DIZ

With `O=C(c1cccs1)C1C(C(=O)c2cccs2)C(c2ccccc2)C1c1ccccc1` (stereo not drawn) as the compound, how does the “diameter of the inhibition zone (DIZ)” value [1] read?
The value was 6 mm.

And the “diameter of the inhibition zone (DIZ)” value [2]?
Its value is 5 mm.

What about the “diameter of the inhibition zone (DIZ)” value [3] of the same compound?
The value was 5 mm.

And the “diameter of the inhibition zone (DIZ)” value [4]?
Its value is 5 mm.

And the “diameter of the inhibition zone (DIZ)” value [5]?
Its value is 5 mm.

What about the “diameter of the inhibition zone (DIZ)” value [6] of the same compound?
Its value is 5 mm.

What about the “diameter of the inhibition zone (DIZ)” value [7] of the same compound?
Its value is 5 mm.

And the “diameter of the inhibition zone (DIZ)” value [8]?
The value was 5 mm.

And the “diameter of the inhibition zone (DIZ)” value [9]?
Its value is 7 mm.

What about the “diameter of the inhibition zone (DIZ)” value [10] of the same compound?
The value was 9 mm.

What about the “diameter of the inhibition zone (DIZ)” value [11] of the same compound?
The value was 5 mm.

What about the “diameter of the inhibition zone (DIZ)” value [12] of the same compound?
The value was 5 mm.

And the “diameter of the inhibition zone (DIZ)” value [13]?
The value was 5 mm.

What does the source list for `OC(/C=C/c1ccco1)(c1ccccc1)C(O)(/C=C/c1ccco1)c1ccccc1` (stereo not drawn)?
diameter of the inhibition zone (DIZ) [1]: 5 mm; diameter of the inhibition zone (DIZ) [2]: 5 mm; diameter of the inhibition zone (DIZ) [3]: 9 mm; diameter of the inhibition zone (DIZ) [4]: 5 mm; diameter of the inhibition zone (DIZ) [5]: 7 mm; diameter of the inhibition zone (DIZ) [6]: 5 mm; diameter of the inhibition zone (DIZ) [7]: 9 mm; diameter of the inhibition zone (DIZ) [8]: 5 mm; diameter of the inhibition zone (DIZ) [9]: 6 mm; diameter of the inhibition zone (DIZ) [10]: 7 mm; diameter of the inhibition zone (DIZ) [11]: 5 mm; diameter of the inhibition zone (DIZ) [12]: 5 mm; diameter of the inhibition zone (DIZ) [13]: 9 mm

Which results are given for `O=C(/C=C/c1ccccc1)c1cccs1`?
MIC [14]: 10 µg/mL (≈ 46.7 µM); zone of inhibition at 10 µg/disc [15]: 9 mm; zone of inhibition at 10 µg/disc [16]: 5 mm; zone of inhibition at 10 µg/disc [17]: 12 mm; MIC [18]: 10 µg/mL (≈ 46.7 µM); diameter of the inhibition zone (DIZ) [6]: 10 mm; MIC [19]: 10 µg/mL (≈ 46.7 µM); zone of inhibition at 20 µg/disc [20]: 9 mm; zone of inhibition at 20 µg/disc [21]: 7 mm; MIC [22]: 10 µg/mL (≈ 46.7 µM); MIC [23]: 10 µg/mL (≈ 46.7 µM); zone of inhibition at 20 µg/disc [24]: 11 mm; zone of inhibition at 10 µg/disc [25]: 10 mm; zone of inhibition at 10 µg/disc [26]: 9 mm; zone of inhibition at 10 µg/disc [27]: 5 mm; zone of inhibition at 40 µg/disc [28]: 9 mm; MIC [29]: 10 µg/mL (≈ 46.7 µM); zone of inhibition at 20 µg/disc [30]: 7 mm; MIC [31]: 10 µg/mL (≈ 46.7 µM); MIC [32]: 10 µg/mL (≈ 46.7 µM); MIC [33]: 10 µg/mL (≈ 46.7 µM); zone of inhibition at 10 µg/disc [34]: 9 mm

What does the source list for `OC(/C=C/c1ccc[nH]1)(c1ccccc1)C(O)(/C=C/c1ccc[nH]1)c1ccccc1` (stereo not drawn)?
diameter of the inhibition zone (DIZ) [1]: 5 mm; diameter of the inhibition zone (DIZ) [2]: 5 mm; diameter of the inhibition zone (DIZ) [3]: 5 mm; diameter of the inhibition zone (DIZ) [4]: 5 mm; diameter of the inhibition zone (DIZ) [5]: 5 mm; diameter of the inhibition zone (DIZ) [6]: 5 mm; diameter of the inhibition zone (DIZ) [7]: 5 mm; diameter of the inhibition zone (DIZ) [8]: 9 mm; diameter of the inhibition zone (DIZ) [9]: 5 mm; diameter of the inhibition zone (DIZ) [10]: 5 mm; diameter of the inhibition zone (DIZ) [11]: 5 mm; diameter of the inhibition zone (DIZ) [12]: 5 mm; diameter of the inhibition zone (DIZ) [13]: 5 mm

What does the source list for `O=C(/C=C/c1ccccc1)c1ccco1`?
zone of inhibition at 20 µg/disc [35]: 7 mm; MIC [14]: 10 µg/mL (≈ 50.4 µM); zone of inhibition at 10 µg/disc [15]: 8 mm; zone of inhibition at 10 µg/disc [16]: 5 mm; zone of inhibition at 10 µg/disc [17]: 5 mm; MIC [18]: 10 µg/mL (≈ 50.4 µM); MIC [19]: 10 µg/mL (≈ 50.4 µM); zone of inhibition at 10 µg/disc [36]: 7 mm; zone of inhibition at 10 µg/disc [37]: 8 mm; MIC [22]: 10 µg/mL (≈ 50.4 µM); MIC [23]: 10 µg/mL (≈ 50.4 µM); zone of inhibition at 10 µg/disc [25]: 11 mm; zone of inhibition at 10 µg/disc [27]: 5 mm; zone of inhibition at 10 µg/disc [38]: 11 mm; MIC [29]: 10 µg/mL (≈ 50.4 µM); MIC [31]: 10 µg/mL (≈ 50.4 µM); MIC [32]: 10 µg/mL (≈ 50.4 µM); MIC [33]: 10 µg/mL (≈ 50.4 µM); zone of inhibition at 10 µg/disc [34]: 11 mm; zone of inhibition at 10 µg/disc [39]: 13 mm; zone of inhibition at 20 µg/disc [40]: 7 mm; zone of inhibition at 10 µg/disc [41]: 5 mm
